Measured values from paper PMC6934184, “Selective DNA-PKcs inhibition extends the therapeutic index of localized radiotherapy and chemotherapy” (The Journal of Clinical Investigation, 2019).

Target: T1, AURKC (Aurora C) (Homo sapiens, UniProt Q9UQB9)
T1 construct: purchased Thermo Fisher Scientific (Life Technologies) SelectScreen
Experiment: SelectScreen Z'LYTE
Assay type: biochemical
Outline: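 Compound tested in SelectScreen activity assays, Z'LYTE for CSF1R, CDK1/cyclin B and MAP2K6 and Adapta for CAMK1. ATP for CAMK1 was listed as 10, and Km app was used for CSF1R. Results are expressed in percent.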

T1 sequence (Q9UQB9 whole entry): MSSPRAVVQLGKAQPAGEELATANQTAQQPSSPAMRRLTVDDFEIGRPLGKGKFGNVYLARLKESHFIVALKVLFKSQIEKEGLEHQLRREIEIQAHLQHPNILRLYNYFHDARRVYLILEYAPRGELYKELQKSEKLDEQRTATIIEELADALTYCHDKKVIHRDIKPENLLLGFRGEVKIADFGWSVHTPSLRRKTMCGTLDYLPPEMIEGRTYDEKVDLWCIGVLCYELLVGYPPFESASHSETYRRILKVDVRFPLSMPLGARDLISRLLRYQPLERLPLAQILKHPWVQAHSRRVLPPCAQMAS

In the case of `CN(C(=O)CN1CCOCC1)c1ccc2sc3c(-c4cccc5c(=O)cc(N6CC7CCC(C6)O7)oc45)cccc3c2c1` [NU5455], the inhibition at 1 µM was -5.4%.
